# Source: PubChem BioAssay AID2060905 (Molecular Pharmacology Branch, DTP, NCI, 2025)
# System: 282377-053-R-J1-PDC complex spheroid viability
# Assay: Anticancer human tumor 282377-053-R-J1-PDC patient-derived colon adenocarcinoma cell line growth inhibition [RAS]
# Conditions: for IC50: curve of first compound; for viability, T/C: stronger effect = lower value
# In short: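 Multi-cell-type spheroids: tumor cells plus HUVEC endothelial cells and mesenchymal stem cells. RAS-pathway inhibitors were combined with targeted agents, each dosed in half-log steps down from clinical Cmax, or from 10 microM when Cmax was unknown.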
# [1] = second compound 0.000949 µM, first compound 0.0316 µM
# [2] = second compound 0.000949 µM, first compound 0.1 µM
# [3] = second compound 0.000949 µM, first compound 0.316 µM
# [4] = second compound 0.000949 µM, first compound 1 µM
# [5] = second compound 0.003 µM, first compound 0.0316 µM
# [6] = second compound 0.003 µM, first compound 0.1 µM
# [7] = second compound 0.003 µM, first compound 0.316 µM
# [8] = second compound 0.003 µM, first compound 1 µM
# [9] = second compound 0.00949 µM, first compound 0.0316 µM
# [10] = second compound 0.00949 µM, first compound 0.1 µM
# [11] = second compound 0.00949 µM, first compound 0.316 µM
# [12] = second compound 0.00949 µM, first compound 1 µM
# [13] = second compound 0.03 µM, first compound 0.0316 µM
# [14] = second compound 0.03 µM, first compound 0.1 µM
# [15] = second compound 0.03 µM, first compound 0.316 µM
# [16] = second compound 0.03 µM, first compound 1 µM
# [17] = second compound 0.0949 µM, first compound 0.0316 µM
# [18] = second compound 0.0949 µM, first compound 0.1 µM
# [19] = second compound 0.0949 µM, first compound 0.316 µM
# [20] = second compound 0.0949 µM, first compound 1 µM
# [21] = second compound 0.3 µM, first compound 0.0316 µM
# [22] = second compound 0.3 µM, first compound 0.1 µM
# [23] = second compound 0.3 µM, first compound 0.316 µM
# [24] = second compound 0.3 µM, first compound 1 µM
# [25] = second compound 0.000949 µM, first compound 3.16 µM
# [26] = second compound 0.000949 µM, first compound 10 µM
# [27] = second compound 0.003 µM, first compound 3.16 µM
# [28] = second compound 0.003 µM, first compound 10 µM
# [29] = second compound 0.00949 µM, first compound 3.16 µM
# [30] = second compound 0.00949 µM, first compound 10 µM
# [31] = second compound 0.03 µM, first compound 3.16 µM
# [32] = second compound 0.03 µM, first compound 10 µM
# [33] = second compound 0.0949 µM, first compound 3.16 µM
# [34] = second compound 0.0949 µM, first compound 10 µM
# [35] = second compound 0.3 µM, first compound 3.16 µM
# [36] = second compound 0.3 µM, first compound 10 µM
# 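Note: spheroids exposed to agents for seven days before readout.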
# 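Throughout, for viability, T/C: luminescence viability as percent of DMSO vehicle control wells.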
smiles,measurement,setting,value
CCN1CCN(Cc2ccc(Nc3ncc(F)c(-c4cc(F)c5nc(C)n(C(C)C)c5c4)n3)nc2)CC1 + CCn1c(-c2cccnc2C(C)OC)c2c3cc(ccc31)N1CCOC(CC(NC(=O)C(C(C)C)N(C)C(=O)C3(F)CCN(C(=O)C#CC(C)(C)N(C)C)CC3)C(=O)N3CCCC(N3)C(=O)OCC(C)(C)C2)C1,IC50,second compound 0.000949 µM,> 1 µM
same,IC50,second compound 0.003 µM,> 1 µM
same,IC50,second compound 0.00949 µM,> 1 µM
same,IC50,second compound 0.03 µM,> 1 µM
same,IC50,second compound 0.0949 µM,> 1 µM
same,IC50,second compound 0.3 µM,> 1 µM
same,"viability, T/C","second compound 0.000949 µM, first compound 0.00316 µM",117%
same,"viability, T/C","second compound 0.000949 µM, first compound 0.01 µM",100%
same,"viability, T/C",[1],104%
same,"viability, T/C",[2],97.3%
same,"viability, T/C",[3],137%
same,"viability, T/C",[4],229%
same,"viability, T/C","second compound 0.003 µM, first compound 0.00316 µM",137%
same,"viability, T/C","second compound 0.003 µM, first compound 0.01 µM",113%
same,"viability, T/C",[5],94.6%
same,"viability, T/C",[6],99%
same,"viability, T/C",[7],144%
same,"viability, T/C",[8],204%
same,"viability, T/C","second compound 0.00949 µM, first compound 0.00316 µM",111%
same,"viability, T/C","second compound 0.00949 µM, first compound 0.01 µM",106%
same,"viability, T/C",[9],122%
same,"viability, T/C",[10],90.4%
same,"viability, T/C",[11],156%
same,"viability, T/C",[12],208%
same,"viability, T/C","second compound 0.03 µM, first compound 0.00316 µM",104%
same,"viability, T/C","second compound 0.03 µM, first compound 0.01 µM",99.5%
same,"viability, T/C",[13],113%
same,"viability, T/C",[14],110%
same,"viability, T/C",[15],134%
same,"viability, T/C",[16],238%
same,"viability, T/C","second compound 0.0949 µM, first compound 0.00316 µM",102%
same,"viability, T/C","second compound 0.0949 µM, first compound 0.01 µM",109%
same,"viability, T/C",[17],120%
same,"viability, T/C",[18],116%
same,"viability, T/C",[19],125%
same,"viability, T/C",[20],250%
same,"viability, T/C","second compound 0.3 µM, first compound 0.00316 µM",93%
same,"viability, T/C","second compound 0.3 µM, first compound 0.01 µM",106%
same,"viability, T/C",[21],87.2%
same,"viability, T/C",[22],124%
same,"viability, T/C",[23],160%
same,"viability, T/C",[24],221%
C[C@@H](NC(=O)c1ncnc(N)c1Cl)c1ncc(C(=O)Nc2cc(C(F)(F)F)c(Cl)cn2)s1 + CCn1c(-c2cccnc2C(C)OC)c2c3cc(ccc31)N1CCOC(CC(NC(=O)C(C(C)C)N(C)C(=O)C3(F)CCN(C(=O)C#CC(C)(C)N(C)C)CC3)C(=O)N3CCCC(N3)C(=O)OCC(C)(C)C2)C1,IC50,second compound 0.000949 µM,> 10 µM
same,IC50,second compound 0.003 µM,> 10 µM
same,IC50,second compound 0.00949 µM,> 10 µM
same,IC50,second compound 0.03 µM,> 10 µM
same,IC50,second compound 0.0949 µM,> 10 µM
same,IC50,second compound 0.3 µM,> 10 µM
same,"viability, T/C",[1],111%
same,"viability, T/C",[2],118%
same,"viability, T/C",[3],119%
same,"viability, T/C",[4],90.6%
same,"viability, T/C",[25],80.8%
same,"viability, T/C",[26],64.5%
same,"viability, T/C",[5],112%
same,"viability, T/C",[6],92.7%
same,"viability, T/C",[7],99.8%
same,"viability, T/C",[8],82.1%
same,"viability, T/C",[27],63.6%
same,"viability, T/C",[28],57.3%
same,"viability, T/C",[9],93.7%
same,"viability, T/C",[10],89%
same,"viability, T/C",[11],78.5%
same,"viability, T/C",[12],109%
same,"viability, T/C",[29],70.1%
same,"viability, T/C",[30],58.9%
same,"viability, T/C",[13],92.8%
same,"viability, T/C",[14],117%
same,"viability, T/C",[15],91%
same,"viability, T/C",[16],84.3%
same,"viability, T/C",[31],75.8%
same,"viability, T/C",[32],81.1%
same,"viability, T/C",[17],83.2%
same,"viability, T/C",[18],93.6%
same,"viability, T/C",[19],76.5%
same,"viability, T/C",[20],73.1%
same,"viability, T/C",[33],71.8%
same,"viability, T/C",[34],71.3%
same,"viability, T/C",[21],80.7%
same,"viability, T/C",[22],99.1%
same,"viability, T/C",[23],96.8%
same,"viability, T/C",[24],86.2%
same,"viability, T/C",[35],81.4%
same,"viability, T/C",[36],66.9%
Cc1nc(N2CCC3(CC2)COC(C)C3N)c(CO)nc1Sc1ccnc(N)c1Cl (stereo unspecified) + CCn1c(-c2cccnc2C(C)OC)c2c3cc(ccc31)N1CCOC(CC(NC(=O)C(C(C)C)N(C)C(=O)C3(F)CCN(C(=O)C#CC(C)(C)N(C)C)CC3)C(=O)N3CCCC(N3)C(=O)OCC(C)(C)C2)C1,IC50,second compound 0.000949 µM,> 10 µM
same,IC50,second compound 0.003 µM,> 10 µM
same,IC50,second compound 0.00949 µM,> 10 µM
same,IC50,second compound 0.03 µM,> 10 µM
same,IC50,second compound 0.0949 µM,> 10 µM
same,IC50,second compound 0.3 µM,> 10 µM
same,"viability, T/C",[1],81%
same,"viability, T/C",[2],93.8%
same,"viability, T/C",[3],89.8%
same,"viability, T/C",[4],94.2%
same,"viability, T/C",[25],81.8%
same,"viability, T/C",[26],80.6%
same,"viability, T/C",[5],85.8%
same,"viability, T/C",[6],115%
same,"viability, T/C",[7],101%
same,"viability, T/C",[8],85.8%
same,"viability, T/C",[27],82.1%
same,"viability, T/C",[28],75.1%
same,"viability, T/C",[9],111%
same,"viability, T/C",[10],85.1%
same,"viability, T/C",[11],89.2%
same,"viability, T/C",[12],99.7%
same,"viability, T/C",[29],99.5%
same,"viability, T/C",[30],110%
same,"viability, T/C",[13],101%
same,"viability, T/C",[14],83.8%
same,"viability, T/C",[15],102%
same,"viability, T/C",[16],87%
same,"viability, T/C",[31],84.4%
same,"viability, T/C",[32],83.4%
same,"viability, T/C",[17],88.9%
same,"viability, T/C",[18],96.2%
same,"viability, T/C",[19],108%
same,"viability, T/C",[20],103%
same,"viability, T/C",[33],95.5%
same,"viability, T/C",[34],105%
same,"viability, T/C",[21],87.6%
same,"viability, T/C",[22],103%
same,"viability, T/C",[23],93%
same,"viability, T/C",[24],100%
same,"viability, T/C",[35],90%
same,"viability, T/C",[36],119%
